According to patent US8084459B2, “Substituted quinazolinones for treating neurological conditions” (Prana Biotechnology Ltd, priority 2004, dated 2011):

Experiments:
Aβ plaques = test: Assay 14 transgenic mouse brain immunohistochemistry (plaque score); format: in vivo; settings: APP2576 mice
Source text: Assay 14. Transgenic Mouse Brain Immunohistochemistry
The APP2576 transgenic mouse (Hsiao et al., 1996) as referred to in Assay 11 is utilized in this assay. The contralateral formalin-fixed mouse brain tissue is coronally cut. Sections (10 μm) are taken from the corresponding sites and treated with 80% formic acid for antigen retrieval. The primary antibody used is monoclonal antibody 1E8, which recognizes epitopes between residues 18 and 22 of Aβ (SmithKline Beecham, UK). Immunoreactivity is developed with secondary antibody linked to horseradish peroxidase (using a 3,39-diaminobenzidinechromagen) (Dako) and alkaline phosphatase (using 5-bromo-4-chloro 3-indoxyl phosphate and nitroblue tetrazolium chloride chromagen) (Dako). Plaque abundance per section is assessed by two operators blinded to treatment according to the following scale:
1=plaques present but very sparse
2=several plaques present
3=numerous plaques visible in restricted areas
4=plaques abundant and not restricted to any particular area.
Intermediate values eg 2.5 are assigned where applicable. Students ‘t’ test is used for comparisons between groups.

[1] = Assay 16 mouse plasma levels of test compounds; format: in vivo; settings: for Assay 16 Mice plasma concentration: highest level found in mice (Up to), oral dosing 30 mg/kg described for PB 1075-1077; for Conc. in mouse plasma / concentration at 30 min / concentration at 60 min: single mouse; for concentration at 30 min / concentration at 60 min: mouse, plasma, po, 30 mg/kg, read-out: Conc. in mouse plasma
Procedure, shortened: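 Compound given orally by gavage at 30 mg/kg as CMC suspension to four mice; two sacrificed at 30 min and two at 60 min, plasma from cardiac blood. Plasma levels by LC/MS (triple quadrupole, C8 column, ACN/water 0.05% formic acid gradient) after ACN protein precipitation.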

[2] = 30 min after oral dosing at 30 mg/kg
[3] = 60 min after oral dosing at 30 mg/kg

| Structure (SMILES) | Assay 16 Mice plasma concentration [1] | Conc. in mouse plasma ([1]; 30 min after oral dosing at 30 mg/kg, listed as PB 1077, 30 mg/kg) [ng/mL] | Conc. in mouse plasma ([1]; 60 min after oral dosing at 30 mg/kg, listed as PB 1077, 30 mg/kg) [ng/mL] | concentration at 30 min [1, 2] [ng/mL] | concentration at 60 min [1, 3] [ng/mL] | Conc. in mouse plasma ([1]; 30 min after oral dosing at 30 mg/kg, listed as PB 1075, 30 mg/kg) [ng/mL] | Conc. in mouse plasma ([1]; 60 min after oral dosing at 30 mg/kg, listed as PB 1075, 30 mg/kg) [ng/mL] | Plaques score: average count score per treatment group relative to the vehicle (sham) treated group (Aβ plaques) |
| --- | --- | --- | --- | --- | --- | --- | --- | --- |
| Br.CCCn1cnc2c(O)c(Cl)cc(Cl)c2c1=O [Compound 1097] | Upto 261 ng/mL in | – | – | – | – | – | – | −3% (plaque) |
| O=c1c2c(Cl)cc(Cl)c(O)c2ncn1Cc1ccccn1 [Compound 1077] | Up to 984 ng/mL | 984.7 | 752.8 | 731 | 495 | – | – | −30% (plaque) |
| O=c1c2c(Cl)cc(Cl)c(O)c2ncn1CCN1CCCC1 [Compound 1075] | Up to 520 ng/mL | – | – | 431 | 520 | 298.46 | 424.81 | −22% (plaque) |

Now from value to compound, other results behind:

| Assay 16 Mice plasma concentration [1] | Conc. in mouse plasma ([1]; 30 min after oral dosing at 30 mg/kg, listed as PB 1077, 30 mg/kg) [ng/mL] | Conc. in mouse plasma ([1]; 60 min after oral dosing at 30 mg/kg, listed as PB 1077, 30 mg/kg) [ng/mL] | concentration at 30 min [1, 2] [ng/mL] | concentration at 60 min [1, 3] [ng/mL] | Conc. in mouse plasma ([1]; 30 min after oral dosing at 30 mg/kg, listed as PB 1075, 30 mg/kg) [ng/mL] | Conc. in mouse plasma ([1]; 60 min after oral dosing at 30 mg/kg, listed as PB 1075, 30 mg/kg) [ng/mL] | Structure (SMILES) | Plaques score: average count score per treatment group relative to the vehicle (sham) treated group (Aβ plaques) |
| --- | --- | --- | --- | --- | --- | --- | --- | --- |
| Upto 2439 ng/mL | – | – | – | – | – | – | Cc1nc(Cn2cnc3c(O)c(Cl)cc(Cl)c3c2=O)cs1 [Compound 1084] | −21% (plaque) |
| Upto 3644 ng/mL | – | – | – | – | – | – | Cc1noc(C)c1Cn1cnc2c(O)c(Cl)cc(Cl)c2c1=O [Compound 1085] | – |
